Assay results: PubChem BioAssay AID330 (DTP/NCI, 2004)
Values joined by “and” are separate entries in the source; they are usually repeats but may differ in a detail not shown here. Identical values can stand only once. Toxic doses and inconclusive results are not listed. The calls were made as follows: active = survival T/C of 150% or more; inactive = T/C below 125% in these data. Peptide text beside a SMILES is read from it. * marks the point of attachment. Boc = CC(C)(C)OC(=O)*; OtBu = CC(C)(C)O*

Tested on: P388 leukemia ip, CD2F1 mice, survival T/C
Assay: NCI In Vivo Anticancer Drug Screen. Data for tumor model P388 Leukemia (intraperitoneal) in CD2F1 (CDF1) mice
Settings: endpoint: median survival time, higher = longer survival
How it was run: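 Mice carrying the transplanted tumor received test compound or vehicle. Survival was recorded in each group, and the value is the treated-group measurement divided by that of the vehicle-treated control group.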

[1] = dose: 50.0 mg/kg/injection, schedule: Q01DX009 (ip), vehicle: Klucel (hydroxypropylcellulose) (HPC)
[2] = dose: 100.0 mg/kg/injection, schedule: Q01DX009 (ip), vehicle: Klucel (hydroxypropylcellulose) (HPC)
[3] = dose: 200.0 mg/kg/injection, schedule: Q01DX009 (ip), vehicle: Klucel (hydroxypropylcellulose) (HPC)
[4] = dose: 50.0 mg/kg/injection, schedule: Q01DX005 (ip), vehicle: Klucel (hydroxypropylcellulose) (HPC)
[5] = dose: 100.0 mg/kg/injection, schedule: Q01DX005 (ip), vehicle: Klucel (hydroxypropylcellulose) (HPC)
[6] = dose: 200.0 mg/kg/injection, schedule: Q01DX005 (ip), vehicle: Klucel (hydroxypropylcellulose) (HPC)
[7] = dose: 100.0 mg/kg/injection, schedule: Q01DX001 (ip), vehicle: saline with Tween-80
[8] = dose: 60.0 mg/kg/injection, schedule: Q01DX005 (ip), vehicle: saline with Tween-80
[9] = dose: 120.0 mg/kg/injection, schedule: Q01DX005 (ip), vehicle: saline with Tween-80
[10] = dose: 50.0 mg/kg/injection, schedule: Q01DX005 (ip), vehicle: saline with Tween-80
[11] = dose: 100.0 mg/kg/injection, schedule: Q01DX005 (ip), vehicle: saline with Tween-80
[12] = dose: 240.0 mg/kg/injection, schedule: Q01DX005 (ip), vehicle: saline with Tween-80

Measured: T/C

N#C[C@H](OC1OC(COC2OC(CO)C(O)C(O)C2O)C(O)C(O)C1O)c1ccccc1 (some centres undefined)
inactive: dose: 6.25 mg/kg/injection, schedule: Q01DX009 (oral), vehicle: water 91 % of control | dose: 12.5 mg/kg/injection, schedule: Q01DX009 (oral), vehicle: saline 98 % of control | dose: 12.5 mg/kg/injection, schedule: Q01DX009 (oral), vehicle: water 95 % of control | dose: 25.0 mg/kg/injection, schedule: Q01DX009 (ip), vehicle: saline 100 % of control | dose: 25.0 mg/kg/injection, schedule: Q01DX009 (ip), vehicle: water 105 % of control | dose: 25.0 mg/kg/injection, schedule: Q01DX009 (oral), vehicle: saline 115 % of control | dose: 25.0 mg/kg/injection, schedule: Q01DX009 (oral), vehicle: water 93 % of control | dose: 50.0 mg/kg/injection, schedule: Q01DX009 (ip), vehicle: saline 100 % of control and 112 % of control | dose: 50.0 mg/kg/injection, schedule: Q01DX009 (ip), vehicle: water 97 % of control | dose: 50.0 mg/kg/injection, schedule: Q01DX009 (oral), vehicle: saline 118 % of control | dose: 50.0 mg/kg/injection, schedule: Q01DX009 (oral), vehicle: suspension in saline 104 % of control | dose: 50.0 mg/kg/injection, schedule: Q01DX009 (oral), vehicle: water 96 % of control | dose: 100.0 mg/kg/injection, schedule: Q01DX009 (ip), vehicle: saline 104 % of control and 107 % of control | dose: 100.0 mg/kg/injection, schedule: Q01DX009 (ip), vehicle: water 100 % of control | dose: 100.0 mg/kg/injection, schedule: Q01DX009 (oral), vehicle: saline 101 % of control | dose: 100.0 mg/kg/injection, schedule: Q01DX009 (oral), vehicle: suspension in saline 100 % of control and 107 % of control | dose: 100.0 mg/kg/injection, schedule: Q01DX009 (oral), vehicle: water 105 % of control and 93 % of control | dose: 200.0 mg/kg/injection, schedule: Q01DX009 (ip), vehicle: saline 100 % of control and 109 % of control | dose: 200.0 mg/kg/injection, schedule: Q01DX009 (ip), vehicle: water 101 % of control | dose: 200.0 mg/kg/injection, schedule: Q01DX009 (oral), vehicle: saline 100 % of control | dose: 200.0 mg/kg/injection, schedule: Q01DX009 (oral), vehicle: water 102 % of control and 104 % of control | dose: 400.0 mg/kg/injection, schedule: Q01DX009 (ip), vehicle: saline 102 % of control and 109 % of control | dose: 400.0 mg/kg/injection, schedule: Q01DX009 (ip), vehicle: water 100 % of control | dose: 400.0 mg/kg/injection, schedule: Q01DX009 (oral), vehicle: suspension in saline 100 % of control | dose: 800.0 mg/kg/injection, schedule: Q01DX009 (ip), vehicle: saline 102 % of control and 108 % of control | dose: 800.0 mg/kg/injection, schedule: Q01DX009 (ip), vehicle: water 102 % of control

CCOC(=O)C(NC(C)=O)(C(=O)OCC)C1CCCC1=O (centres undefined)
inactive: dose: 60.0 mg/kg/injection, schedule: Q01DX005 (ip), vehicle: saline 94 % of control | dose: 120.0 mg/kg/injection, schedule: Q01DX005 (ip), vehicle: saline 96 % of control | dose: 240.0 mg/kg/injection, schedule: Q01DX005 (ip), vehicle: saline 100 % of control

COc1cccc(OC)c1OCCN1C(=O)c2ccccc2C1=O
inactive: [1] 100 % of control | [2] 100 % of control | [3] 105 % of control

CSCCC(NC(=O)OC(C)(C)C)C(=O)NC(Cc1ccccc1)C(=O)NCC(=O)OC(C)(C)C (stereo not drawn) (Boc-Met-Phe-Gly-OtBu; configuration not given here)
inactive: [4] 93 % of control | [5] 97 % of control | [6] 107 % of control

CCOC(=O)Cc1ccc(-c2csc(Nc3ccc(Cl)cc3)n2)cc1
inactive: dose: 100.0 mg/kg/injection, schedule: Q04DX003 (ip), vehicle: Klucel (hydroxypropylcellulose) (HPC) 96 % of control | dose: 200.0 mg/kg/injection, schedule: Q04DX003 (ip), vehicle: Klucel (hydroxypropylcellulose) (HPC) 104 % of control | dose: 400.0 mg/kg/injection, schedule: Q04DX003 (ip), vehicle: Klucel (hydroxypropylcellulose) (HPC) 106 % of control

CC[C@]12CCCN3CCc4c(n(c5ccccc45)C(=O)C1)[C@@H]32
inactive: [1] 95 % of control | [2] 107 % of control | [3] 91 % of control

CS/N=C(\c1ccccc1)N1CCOCC1
inactive: dose: 60.0 mg/kg/injection, schedule: Q01DX005 (ip), vehicle: Klucel (hydroxypropylcellulose) (HPC) 100 % of control | dose: 120.0 mg/kg/injection, schedule: Q01DX005 (ip), vehicle: Klucel (hydroxypropylcellulose) (HPC) 98 % of control

O=C(/C=C/c1ccccc1)c1c2ccccc2cc2ccccc12
inactive: [7] 107 % of control | dose: 200.0 mg/kg/injection, schedule: Q01DX001 (ip), vehicle: saline with Tween-80 100 % of control | dose: 400.0 mg/kg/injection, schedule: Q01DX001 (ip), vehicle: saline with Tween-80 91 % of control

O=C(O)c1cc(N=C=S)ccc1-c1c2ccc(=O)cc-2oc2cc(O)ccc12
inactive: dose: 12.5 mg/kg/injection, schedule: Q01DX005 (ip), vehicle: saline + Tween-80 + alcohol 105 % of control | dose: 25.0 mg/kg/injection, schedule: Q01DX005 (ip), vehicle: saline + Tween-80 + alcohol 105 % of control | dose: 50.0 mg/kg/injection, schedule: Q01DX005 (ip), vehicle: saline + Tween-80 + alcohol 105 % of control | [8] 114 % of control | [9] 115 % of control

CC(C)(C)N=S=Nc1c(F)c(F)c(F)c(F)c1F
inactive: [10] 110 % of control | [11] 106 % of control

O=C1CCC(N2C(=O)C3C4CCC(O4)C3C2=O)C(=O)N1 (centres undefined)
inactive: [8] 101 % of control | [9] 94 % of control | [12] 100 % of control

COc1ccc(/C=N/NC(=S)NN)cc1
inactive: [8] 99 % of control | [9] 100 % of control | [12] 98 % of control

O=C(NC(Cc1ccccc1)C(=O)O)C(Cl)Cl (centres undefined)
inactive: [4] 91 % of control | [5] 100 % of control | [6] 100 % of control

Cc1ccc(NC(=O)CCCC(=O)C(C#N)c2ccccc2Cl)cc1C (centres undefined)
inactive: [8] 102 % of control | [9] 108 % of control | [12] 101 % of control

O=NN(CCCl)C(=O)OCC(Cl)(Cl)Cl
inactive: dose: 3.12 mg/kg/injection, schedule: Q01DX001 (ip), vehicle: saline with Tween-80 104 % of control | dose: 6.25 mg/kg/injection, schedule: Q01DX001 (ip), vehicle: saline with Tween-80 101 % of control | dose: 12.5 mg/kg/injection, schedule: Q01DX001 (ip), vehicle: saline with Tween-80 113 % of control | dose: 25.0 mg/kg/injection, schedule: Q01DX001 (ip), vehicle: saline with Tween-80 113 % of control and 117 % of control and 119 % of control | dose: 50.0 mg/kg/injection, schedule: Q01DX001 (ip), vehicle: saline with Tween-80 105 % of control and 120 % of control and 123 % of control | [7] 88 % of control

COc1ccc2c(c1O)Oc1c(O)ccc3c1C(C2)N(C)CC3 (centres undefined)
inactive: dose: 2.5 mg/kg/injection, schedule: Q01DX005 (ip), vehicle: Klucel (hydroxypropylcellulose) (HPC) 107 % of control | dose: 5.0 mg/kg/injection, schedule: Q01DX005 (ip), vehicle: Klucel (hydroxypropylcellulose) (HPC) 100 % of control | dose: 10.0 mg/kg/injection, schedule: Q01DX005 (ip), vehicle: Klucel (hydroxypropylcellulose) (HPC) 102 % of control | dose: 20.0 mg/kg/injection, schedule: Q01DX005 (ip), vehicle: Klucel (hydroxypropylcellulose) (HPC) 100 % of control

O=c1c2[nH]c3ccccc3sc=2c(=O)n1-c1cccc(Cl)c1
inactive: [10] 102 % of control | [11] 102 % of control | dose: 200.0 mg/kg/injection, schedule: Q01DX005 (ip), vehicle: saline with Tween-80 105 % of control

O=C1CCC(NC(=O)c2ccccc2)C(=O)N1 (centres undefined)
inactive: dose: 31.25 mg/kg/injection, schedule: Q01DX005 (ip), vehicle: Klucel (hydroxypropylcellulose) (HPC) 102 % of control | [8] 98 % of control | dose: 62.5 mg/kg/injection, schedule: Q01DX005 (ip), vehicle: Klucel (hydroxypropylcellulose) (HPC) 98 % of control | [9] 107 % of control | dose: 125.0 mg/kg/injection, schedule: Q01DX005 (ip), vehicle: Klucel (hydroxypropylcellulose) (HPC) 102 % of control | [12] 100 % of control | dose: 250.0 mg/kg/injection, schedule: Q01DX005 (ip), vehicle: Klucel (hydroxypropylcellulose) (HPC) 100 % of control | dose: 500.0 mg/kg/injection, schedule: Q01DX005 (ip), vehicle: Klucel (hydroxypropylcellulose) (HPC) 92 % of control

CCOC(=O)c1nc(C)[nH]c1C
inactive: [1] 100 % of control | [2] 95 % of control | [3] 100 % of control
